Assay results taken from patent US20230066011A1, “PYRROLOPYRIMIDINE DERIVATIVE, AND PHARMACEUTICAL COMPOSITION FOR PREVENTING OR TREATING PROTEIN KINASE-RELATED DISEASE COMPRISING SAME AS ACTIVE INGREDIENT” (VORONOI CO., LTD., priority 2019, published 2023).

Columns and labels:
LRRK2 = LRRK2 (Homo sapiens, UniProt Q5S007); experiment: LRRK2 enzyme inhibition, ADP-Glo kinase assay; format: biochemical; parameters: purchased Invitrogen PR8604B; conditions: ATP 10 μM
Procedure, shortened: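 ADP-Glo luminescent read-out of ADP formed by purified human LRRK2 enzyme (25 ng), 10 μM ATP, 0.2 μg substrate, 25° C for 2 h, Tris-HCl pH 7.4 buffer with MgCl2, BSA, DTT. Inhibition versus untreated solvent control over twelve final concentrations (50 μM downward) gives IC50.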

TTK = target: T1, TTK (Homo sapiens, UniProt P33981); experiment: TTK enzyme inhibition, ADP-Glo kinase assay; format: biochemical; parameters: purchased SignalChem T20-10G; conditions: ATP 5 μM
T1 sequence (P33981 1-857): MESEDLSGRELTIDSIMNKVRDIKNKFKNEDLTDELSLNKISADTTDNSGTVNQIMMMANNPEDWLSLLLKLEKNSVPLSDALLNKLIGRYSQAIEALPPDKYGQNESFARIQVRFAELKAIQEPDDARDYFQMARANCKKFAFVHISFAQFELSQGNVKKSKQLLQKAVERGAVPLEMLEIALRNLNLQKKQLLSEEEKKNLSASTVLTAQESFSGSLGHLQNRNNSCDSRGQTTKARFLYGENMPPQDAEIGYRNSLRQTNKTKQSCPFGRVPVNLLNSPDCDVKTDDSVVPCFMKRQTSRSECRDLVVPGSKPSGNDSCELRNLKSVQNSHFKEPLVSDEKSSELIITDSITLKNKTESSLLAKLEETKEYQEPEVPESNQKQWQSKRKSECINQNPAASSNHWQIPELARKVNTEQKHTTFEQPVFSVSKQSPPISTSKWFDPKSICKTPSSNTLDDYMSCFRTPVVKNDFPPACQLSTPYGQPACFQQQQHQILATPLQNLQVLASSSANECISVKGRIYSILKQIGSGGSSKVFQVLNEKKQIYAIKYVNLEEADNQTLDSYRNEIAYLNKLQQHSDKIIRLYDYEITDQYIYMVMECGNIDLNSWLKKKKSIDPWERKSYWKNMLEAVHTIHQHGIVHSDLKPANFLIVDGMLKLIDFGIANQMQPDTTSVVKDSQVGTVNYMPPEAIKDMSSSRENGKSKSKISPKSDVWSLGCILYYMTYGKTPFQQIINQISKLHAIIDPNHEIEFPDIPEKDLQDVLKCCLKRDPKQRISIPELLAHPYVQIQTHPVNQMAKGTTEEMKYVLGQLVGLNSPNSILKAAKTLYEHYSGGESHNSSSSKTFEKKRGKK
Procedure, shortened: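 Purified human TTK (7.5 ng) was reacted with 5 μM ATP and 0.2 μg MBP substrate for 4 h at 25 °C in 40 mM Tris-HCl pH 7.4, 20 mM MgCl2, 0.1 mg/mL BSA, 50 μM DTT. ADP formation was read by ADP-Glo luminescence, and IC50 was taken relative to solvent control.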

Sequence of LRRK2 (Q5S007 970-2527 limits assumed): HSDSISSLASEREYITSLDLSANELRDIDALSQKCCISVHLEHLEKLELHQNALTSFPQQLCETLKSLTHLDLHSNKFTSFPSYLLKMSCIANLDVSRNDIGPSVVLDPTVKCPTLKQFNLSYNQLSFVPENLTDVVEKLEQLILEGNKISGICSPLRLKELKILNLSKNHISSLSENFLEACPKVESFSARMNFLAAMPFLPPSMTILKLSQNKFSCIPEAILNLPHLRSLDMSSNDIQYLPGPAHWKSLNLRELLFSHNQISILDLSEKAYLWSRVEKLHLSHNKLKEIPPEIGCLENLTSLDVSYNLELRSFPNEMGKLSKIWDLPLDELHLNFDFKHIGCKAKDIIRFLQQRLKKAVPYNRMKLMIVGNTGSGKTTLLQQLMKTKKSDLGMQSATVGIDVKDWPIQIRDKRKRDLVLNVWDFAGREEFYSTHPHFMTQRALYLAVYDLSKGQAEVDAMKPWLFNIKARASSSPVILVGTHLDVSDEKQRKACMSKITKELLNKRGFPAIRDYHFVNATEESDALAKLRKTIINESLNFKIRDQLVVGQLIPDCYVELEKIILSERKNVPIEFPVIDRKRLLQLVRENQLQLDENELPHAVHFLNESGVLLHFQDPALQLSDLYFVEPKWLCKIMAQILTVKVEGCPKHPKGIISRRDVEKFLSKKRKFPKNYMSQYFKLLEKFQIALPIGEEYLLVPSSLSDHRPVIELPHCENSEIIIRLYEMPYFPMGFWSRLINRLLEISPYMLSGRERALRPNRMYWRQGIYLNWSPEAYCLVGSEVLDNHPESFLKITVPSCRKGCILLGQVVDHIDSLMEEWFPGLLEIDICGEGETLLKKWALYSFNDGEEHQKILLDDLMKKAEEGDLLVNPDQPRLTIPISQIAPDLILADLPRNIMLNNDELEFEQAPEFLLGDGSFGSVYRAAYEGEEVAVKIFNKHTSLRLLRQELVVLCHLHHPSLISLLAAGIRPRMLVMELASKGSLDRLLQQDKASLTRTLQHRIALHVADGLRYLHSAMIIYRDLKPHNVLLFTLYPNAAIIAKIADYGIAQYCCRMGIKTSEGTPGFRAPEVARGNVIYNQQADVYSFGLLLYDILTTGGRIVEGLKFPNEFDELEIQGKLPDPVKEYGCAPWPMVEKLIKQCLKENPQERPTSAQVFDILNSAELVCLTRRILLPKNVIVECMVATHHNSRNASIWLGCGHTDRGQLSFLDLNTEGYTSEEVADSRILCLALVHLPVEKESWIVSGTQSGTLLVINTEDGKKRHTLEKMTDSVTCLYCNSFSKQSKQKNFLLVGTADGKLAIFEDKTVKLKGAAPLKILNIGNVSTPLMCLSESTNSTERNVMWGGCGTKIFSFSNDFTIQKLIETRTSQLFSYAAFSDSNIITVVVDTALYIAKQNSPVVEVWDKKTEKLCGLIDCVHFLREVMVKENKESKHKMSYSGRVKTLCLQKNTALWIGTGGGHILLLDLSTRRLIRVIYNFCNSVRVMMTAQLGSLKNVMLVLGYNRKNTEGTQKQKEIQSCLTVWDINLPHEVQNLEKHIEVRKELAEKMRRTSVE

SMILES | IC50 (LRRK2) [nM] | IC50 (TTK) [nM]
CNc1nc(Nc2ccc(C(=O)N3CCN(C4COC4)CC3)c3c2OCCO3)nc2[nH]cc(C(F)(F)F)c12 [Example 397, (8-((4-(methylamino)-5-(trifluoromethyl)-7H-pyrrolo[2,3-d]pyrimidin-2-yl)amino)-2,3-dihydrobenzo[b] [1,4]dioxin-5-yl) (4-(oxetan-3-yl)piperazin-1-yl)methanone] | < 100 | < 100
CNc1nc(Nc2cc(F)c(S(=O)(=O)N3CCC(N4CCOCC4)CC3)cc2OC)nc2[nH]cc(C(F)(F)F)c12 [Example 231, N^2-(5-fluoro-2-methoxy-4-((4-morpholinopiperidin-1-yl)sulfonyl)phenyl)-N^4-methyl-5-(trifluoromethyl)-7H-pyrrolo[2,3-d]pyrimidine-2,4-diamine] | – | 101 to 300
CCNc1nc(Nc2ccc(C(=O)N3CCC(N4CCOCC4)CC3)c3c2OCC3)nc2[nH]cc(C(F)(F)F)c12 [Example 438, (7-((4-(ethylamino)-5-(trifluoromethyl)-7H-pyrrolo[2,3-d]pyrimidin-2-yl)amino)-2,3-dihydrobenzo-furan-4-yl)(4-morpho-linopiperidin-1-yl)methanone] | < 100 | < 100
N#Cc1c[nH]c2nc(Nc3ccc(C(=O)N4CCOCC4)c4c3OCCO4)nc(NCC3CCCC3)c12 [Example 133, 4-((cyclopentylmethyl)amino)-2-((8-(morpholine-4-carbonyl)-2,3-dihydrobenzo[b][1,4]dioxin-5-yl)amino)-7H-pyrrolo[2,3-d]pyrimidine-5-carbonitrile] | < 100 | < 100
COc1cc(S(=O)(=O)N2CCC(N3C[C@H]4C[C@@H]3CO4)CC2)ccc1Nc1nc(C2CC2)c2c(C(F)(F)F)c[nH]c2n1 [Example 473, N-(4-((4-((1R,4R)-2-oxa-5-azabicyclo[2.2.1]heptan-5-yl)piperidin-1-yl)sulfonyl)-2-methoxyphenyl)-4-cyclopropyl-5-(trifluoromethyl)-7H-pyrrolo[2,3-d]pyrimidin-2-amine] | – | < 100
CCNc1nc(Nc2ccc(C(=O)N3CCC(N4CCOCC4)CC3)c3c2OCC3)nc2[nH]cc(C#N)c12 [Example 347, 4-(ethylamino)-2-((4-(4-morpholino-piperidine-1-carbonyl)-2,3-dihydro-benzofuran-7-yl)amino)-7H-pyrrolo[2,3-d]pyrimidine-5-carbonitrile] | < 100 | –
CNc1nc(Nc2ccc(C(=O)N3CCC(N4CCOCC4)CC3)c3c2OCC3)nc2[nH]cc(C(F)(F)F)c12 [Example 217, (7-((4-(methylamino)-5-(trifluoromethyl)-7H-pyrrolo[2,3-d]pyrimidin-2-yl)amino)-2,3-dihydrobenzofuran-4-yl)(4-morpholinopiperidin-1-yl)methanone] | < 100 | < 100
CNc1nc(Nc2ccc(C(=O)N3CC[C@H](N4CCOCC4)C3)c3c2OCC3)nc2[nH]cc(C(F)(F)F)c12 [Example 236, (S)-(7-((4-(methylamino)-5-(trifluoromethyl)-7H-pyrrolo[2,3-d]pyrimidin-2-yl)amino)-2,3-dihydrobenzofuran-4-yl)(3-morpholinopyrrolidin-1-yl)methanone] | < 100 | –
O=C(c1ccc(Nc2nc(NC3CC3)c3c(C(F)(F)F)c[nH]c3n2)c2c1OCCO2)N1CCN(C2COC2)CC1 [Example 405, (8-((4-(cyclo-propylamino)-5-(trifluoromethyl)-7H-pyrrolo[2,3-d]pyrimidin-2-yl)amino)-2,3-dihydrobenzo[b] [1,4]dioxin-5-yl) (4-(oxetan-3-yl)piperazin-1-yl)methanone] | < 100 | –
COCCNc1nc(Nc2ccc(C(=O)N3CCC(N4CCOCC4)CC3)c3c2OCC3)nc2[nH]cc(C#N)c12 [Example 359, 4-((2-methoxy-ethyl)ami-no)-2-((4-(4-morpholino-piperidine-1-carbonyl)-2,3-dihydro-benzofuran-7-yl)amino)-7H-pyrrolo[2,3-d]pyrimidine-5-carbonitrile] | – | < 100
CCNc1nc(Nc2ccc(C(=O)N3CC[C@H](N4CCOCC4)C3)c3c2OCC3)nc2[nH]cc(C(F)(F)F)c12 [Example 475, (S)-(7-((4-(ethylamino)-5-(trifluoromethyl)-7H-pyrrolo[2,3-d]pyrimidin-2-yl)amino)-2,3-dihydrobenzo-furan-4-yl)(3-morpholino-pyrrolidin-1-yl)methanone] | < 100 | –
O=C(c1ccc(Nc2nc(NCC3CC3)c3c(C(F)(F)F)c[nH]c3n2)c2c1CCO2)N1CCC(N2CCOCC2)CC1 [Example 461, (7-((4-((cyclo-propylmeth-yl)amino)-5-(trifluoromethyl)-7H-pyrrolo[2,3-d]pyrimidin-2-yl)amino)-2,3-dihydrobenzo-furan-4-yl)(4-morpho-linopiperidin-1-yl)methanone] | < 100 | –
CCNc1nc(Nc2cc(F)c(S(=O)(=O)N3CCC(N4CCOCC4)CC3)cc2OC)nc2[nH]cc(C(F)(F)F)c12 [Example 232, N^4-ethyl-N^2-(5-fluoro-2-methoxy-4-((4-morpholinopiperidin-1-yl)sulfonyl)phenyl)-5-(trifluoromethyl)-7H-pyrrolo[2,3-d]pyrimidine-2,4-diamine] | – | 301 to 1000
CNc1nc(Nc2ccc(C(=O)N3CCC(N4CCOCC4)CC3)c3c2OCCO3)nc2[nH]cc(C(F)(F)F)c12 [Example 238, (8-((4-(methylamino)-5-(trifluoromethyl)-7H-pyrrolo[2,3-d]pyrimidin-2-yl)amino)-2,3-dihydrobenzo[b][1,4]dioxin-5-yl)(4-morpholinopiperidin-1-yl)methanone] | < 100 | –

Continued, values first:

IC50 (LRRK2) [nM] | IC50 (TTK) [nM] | SMILES
< 100 | < 100 | O=C(c1ccc(Nc2nc(NC3CCCC3)c3c(C(F)(F)F)c[nH]c3n2)c2c1OCCO2)N1CCN(C2COC2)CC1 [Example 414, (8-((4-(cyclopentyl-amino)-5-(trifluoromethyl)-7H-pyrrolo[2,3-d]pyrimidin-2-yl)amino)-2,3-dihydrobenzo[b] [1,4]dioxin-5-yl) (4-(oxetan-3-yl)piperazin-1-yl)methanone]
– | < 100 | O=C(c1ccc(Nc2nc(NC3CCCCC3)c3c(C(F)(F)F)c[nH]c3n2)c2c1OCCO2)N1CCN(C2COC2)CC1 [Example 415, (8-((4-(cyclo-hexylamino)-5-(trifluoromethyl)-7H-pyrrolo[2,3-d]pyrimidin-2-yl)amino)-2,3-dihydrobenzo[b] [1,4]dioxin-5-yl) (4-(oxetan-3-yl)piperazin-1-yl)methanone]
< 100 | – | COCCNc1nc(Nc2ccc(P3(=O)CCN(C4CCOCC4)CC3)cc2OC)nc2[nH]cc(C(F)(F)F)c12 [Example 444, 4-(3-methoxy-4-((4-((2-methoxyethyl)amino)-5-(trifluoromethyl)-7H-pyrrolo[2,3-d]pyrimidin-2-yl)amino)phenyl)-1-(tetrahydro-2H-pyran-4-yl)-1,4-azaphosphinane 4-oxide]
101 to 300 | < 100 | COc1cc(S(=O)(=O)N2CCC(N3CCOCC3)CC2)ccc1Nc1nc(C2CC2)c2c(C(F)(F)F)c[nH]c2n1 [Example 226]
< 100 | – | CNc1nc(Nc2ccc(P3(=O)CCN(C4CC4)CC3)cc2OC)nc2[nH]cc(C(F)(F)F)c12 [Example 411, 1-cyclopropyl-4-(3-methoxy-4-((4-(methylamino)-5-(trifluoromethyl)-7H-pyrrolo[2,3-d]pyrimidin-2-yl)amino)phenyl)-1,4-azaphosphinane-4-oxide]
– | < 100 | CNc1nc(Nc2ccc(S(=O)(=O)N3CCC(N4CCOCC4)CC3)cc2OC)nc2[nH]cc(C(F)(F)F)c12 [Example 157, N^2-(2-methoxy-4-((4-morpholinopiperidin-1-yl)sulfonyl)phenyl)-N^4-methyl-5-(trifluoromethyl)-7H-pyrrolo[2,3-d]pyrimidine-2,4-diamine 2,2,2-trifluoroacetate]
< 100 | – | O=C(c1ccc(Nc2nc(NC3CCC3)c3c(C(F)(F)F)c[nH]c3n2)c2c1OCCO2)N1CCN(C2COC2)CC1 [Example 407, (8-((4-(cyclo-butylamino)-5-(trifluoromethyl)-7H-pyrrolo[2,3-d]pyrimidin-2-yl)amino)-2,3-dihydrobenzo[b] [1,4]dioxin-5-yl) (4-(oxetan-3-yl)piperazin-1-yl)methanone]
– | < 100 | COc1cc(P2(=O)CCN(C3CC3)CC2)ccc1Nc1nc(NC2CCCC2)c2c(C(F)(F)F)c[nH]c2n1 [Example 413]
